Source: publication PMC12337342 (Proceedings of the National Academy of Sciences of the …, 2025)

Biological target: T1, AUX1 (Arabidopsis thaliana, UniProt Q96247)
T1 sequence (Q96247 1-485): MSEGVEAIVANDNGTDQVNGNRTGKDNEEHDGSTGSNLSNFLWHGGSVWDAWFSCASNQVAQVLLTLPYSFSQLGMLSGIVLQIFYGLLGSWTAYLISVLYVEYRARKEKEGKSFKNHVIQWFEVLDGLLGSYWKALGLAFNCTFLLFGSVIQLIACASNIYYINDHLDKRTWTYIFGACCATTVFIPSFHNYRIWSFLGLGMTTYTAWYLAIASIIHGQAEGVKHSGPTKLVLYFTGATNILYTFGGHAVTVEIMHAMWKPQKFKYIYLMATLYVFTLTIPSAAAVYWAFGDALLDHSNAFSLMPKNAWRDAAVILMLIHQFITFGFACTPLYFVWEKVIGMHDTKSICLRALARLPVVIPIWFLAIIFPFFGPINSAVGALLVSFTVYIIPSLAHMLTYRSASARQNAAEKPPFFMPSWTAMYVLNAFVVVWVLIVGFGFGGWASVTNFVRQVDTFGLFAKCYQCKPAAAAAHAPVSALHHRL
Assay: inhibition of [3H]IAA uptake in AUX1-expressing HEK293T cells
Type: cell-based
Settings: about 30 nM [3H]IAA, pH 6.0, 37 °C, 10 min

Structure (SMILES)	% relative auxin accumulation at 50 μM inhibitor
O=C(O)COc1cccc2ccccc12 [1-NOA, 1-naphthoxyacetic acid]	reduced the uptake of [^3H]IAA in AUX1-expressing HEK293T cells
O=C(O)COc1ccc2ccccc2c1 [2-NOA, 2-naphthoxyacetic acid]	reduced the uptake of [^3H]IAA in AUX1-expressing HEK293T cells
O=C(O)Cc1ccc(O)c(Cl)c1 [CHPAA, 3-chloro-4-hydroxyphenylacetic acid]	reduced the uptake of [^3H]IAA in AUX1-expressing HEK293T cells
